This assay has as its target T1, human PTH1 receptor (Homo sapiens, UniProt Q03431).
T1 sequence (Q03431 27-593): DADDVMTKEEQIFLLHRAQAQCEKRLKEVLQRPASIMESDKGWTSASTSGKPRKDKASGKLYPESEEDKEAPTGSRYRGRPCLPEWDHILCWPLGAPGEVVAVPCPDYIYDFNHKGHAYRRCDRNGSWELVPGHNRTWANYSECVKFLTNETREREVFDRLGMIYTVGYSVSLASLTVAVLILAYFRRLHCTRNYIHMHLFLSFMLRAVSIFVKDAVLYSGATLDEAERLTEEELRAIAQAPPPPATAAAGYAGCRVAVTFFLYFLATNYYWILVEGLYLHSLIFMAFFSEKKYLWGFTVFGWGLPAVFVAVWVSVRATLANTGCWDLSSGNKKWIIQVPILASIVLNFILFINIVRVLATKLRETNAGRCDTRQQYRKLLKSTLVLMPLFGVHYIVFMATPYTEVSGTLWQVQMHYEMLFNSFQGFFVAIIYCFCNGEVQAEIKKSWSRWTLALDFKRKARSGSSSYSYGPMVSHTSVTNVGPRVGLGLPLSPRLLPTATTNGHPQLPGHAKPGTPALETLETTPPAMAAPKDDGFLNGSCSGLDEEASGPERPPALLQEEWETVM
The assay can be described thus: In vitro cAMP signal activity in HKRK-B7 cells (LLC-PK1 cells overexpressing the human PTH1 receptor). It counts as cell-based. The note with it: HKRK-B7 cells; compound at 1×10^−3 M; cAMP produced as percentage of that produced by hPTH(1-34) at 100 nM.
For the molecule `CCCCC1CCC(C2=NC3(CCN(S(=O)(=O)/C=C/c4c(C)cc(C(=O)N5CCC(OCCO)CC5)cc4C)CC3)C(=O)N2)CC1` (stereo not shown) [Compound 1008, 2-(4-Butyl-cyclohexyl)-8-((E)-2-{4-[4-(2-hydroxy-ethoxy)-piperidine-1-carbonyl]-2,6-dimethyl-phenyl}-ethenesulfonyl)-1,3,8-triaza-spiro[4.5]dec-1-en-4-one], the “cAMP production activity (%)” value came to 73%.
As to `CC(=O)NS(=O)(=O)c1ccc(/C=C/S(=O)(=O)N2CCC3(CC2)N=C(c2cccc(C(F)(F)F)c2)NC3=O)c(C)c1` [Compound 594, N-acetyl-3-methyl-4-{(E)-2-[4-oxo-2-(3-trifluoromethyl-phenyl)-1,3,8-triaza-spiro[4.5]dec-1-ene-8-sulfonyl]-vinyl}-benzenesulfonamide], the “cAMP production activity (%)” value was 69%.
As for `Cc1cc(N2C(=O)CNC2=O)ccc1CCS(=O)(=O)N1CCC2(CC1)N=C([C@H]1CC[C@H](CC(F)(F)F)CC1)NC2=O` [Compound 948, 3-[3-Methyl-4-(2-{4-oxo-2-[4-(2,2,2-trifluoro-ethyl)-cyclohexyl]-1,3,8-triaza-spiro[4.5]dec-1-ene-8-sulfonyl}-ethyl)-phenyl]-imidazolidine-2,4-dione], the “cAMP production activity (%)” value stood at 68%.
In the case of `CC(=O)Nc1ccc(CCS(=O)(=O)N2CCC3(CC2)N=C(c2cccc(C)c2C)NC3=O)c(C)c1` [Compound 146, N-(4-{2-[2-(2,3-dimethyl-phenyl)-4-oxo-1,3,8-triaza-spiro[4.5]dec-1-ene-8-sulfonyl]-ethyl}-3-methyl-phenyl)-acetamide], the “cAMP production activity (%)” value is listed as 122%.
Turning to `Cc1cc2ccc1CCS(=O)(=O)N1CCC3(CC1)N=C(NC3=O)c1cc(cc(C(F)(F)F)c1)OCCCCCCCCCN(C)C2=O` [Compound 1415], the “cAMP production activity (%)” value was determined as 49%.
As for `CN(C)C(=O)c1cccc(-c2ccc(S(=O)(=O)N3CCC4(CC3)N=C(c3cccc(C(F)(F)F)c3)NC4=O)s2)c1` [Compound 330, N,N-dimethyl-3-{5-[4-oxo-2-(3-trifluoromethyl-phenyl)-1,3,8-triaza-spiro[4.5]dec-1-ene-8-sulfonyl]-thiophen-2-yl}-benzamide], the figure is 23%.
`Cc1cc(CNC(=O)OC(C)(C)C)ccc1CCS(=O)(=O)N1CCC2(CC1)N=C(C1CCC(CCC(F)(F)F)CC1)NC2=O` (stereo not shown) [Compound 928, [3-Methyl-4-(2-{4-oxo-2-[4-(3,3,3-trifluoro-propyl)-cyclohexyl]-1,3,8-triaza-spiro[4.5]dec-1-ene-8-sulfonyl}-ethyl)-benzyl]-carbamic acid tert-butyl ester]: the “cAMP production activity (%)” value stood at 51%.
As to `Cc1cc2ccc1CCS(=O)(=O)N1CCC3(CC1)N=C(NC3=O)c1cc(cc(C(F)(F)F)c1)OCCCCCCOCCN(C)C2=O` [Compound 1437], the “cAMP production activity (%)” value worked out at 57%.
On to `CC1CCCC(C2=NC3(CCN(S(=O)(=O)c4cccc(Cl)c4)CC3)C(=O)N2)C1` (stereo not shown) [Compound 19, 8-(3-chloro-benzenesulfonyl)-2-(3-methyl-cyclohexyl)-1,3,8-triaza-spiro[4.5]dec-1-en-4-one], for which the “cAMP production activity (%)” value came to 35%.
For `Cc1cc(N(C)C(N)=O)cc(C)c1CCS(=O)(=O)N1CCC2(CC1)N=C(CCCCCCCC(F)(F)C(F)(F)F)NC2=O` [Compound 1302, 1-(3,5-dimethyl-4-{2-[4-oxo-2-(8,8,9,9,9-pentafluoro-nonyl)-1,3,8-triaza-spiro[4.5]dec-1-ene-8-sulfonyl]-ethyl}-phenyl)-1-methyl-urea], the “cAMP production activity (%)” value came to 95%.
`O=C1NC([C@@H]2C[C@H]3CC[C@@H]2C3)=NC12CCN(S(=O)(=O)c1cccc(Cl)c1)CC2` [Compound 23, 2-(1R,2R,4S)-bicyclo[2.2.1]hept-2-yl-8-(3-chloro-benzenesulfonyl)-1,3,8-triaza-spiro[4.5]dec-1-en-4-one]: the “cAMP production activity (%)” value stood at 41%.
For `O=C1NC(C2CCCCC2)=NC12CCN(S(=O)(=O)CCc1cccc3c1ccn3C[C@H](O)CO)CC2` [Compound 309, 2-cyclohexyl-8-{2-[1-((S)-2,3-dihydroxy-propyl)-1H-indol-4-yl]-ethanesulfonyl}-1,3,8-triaza-spiro[4.5]dec-1-en-4-one], the “cAMP production activity (%)” value amounted to 72%.
To `Cc1cc(N2C(=O)NC(C)(C)C2=O)cc(C)c1CCS(=O)(=O)N1CCC2(CC1)N=C(C1CCC(C)CC1)NC2=O` (stereo not shown) [Compound 869, 3-(3,5-dimethyl-4-{2-[2-(4-methyl-cyclohexyl)-4-oxo-1,3,8-triaza-spiro[4.5]dec-1-ene-8-sulfonyl]-ethyl}-phenyl)-5,5-dimethyl-imidazolidine-2,4-dione] belongs 65%; to `COc1cc(N(C)C(N)=O)cc(C)c1CCS(=O)(=O)N1CCC2(CC1)N=C(C1CCC(C)CC1)NC2=O` (stereo not shown) [Compound 682, 1-(3-Methoxy-5-methyl-4-{2-[2-(4-methyl-cyclohexyl)-4-oxo-1,3,8-triaza-spiro[4.5]dec-1-ene-8-sulfonyl]-ethyl}-phenyl)-1-methyl-urea], 81%; to `Cc1cc(OC[C@H](O)CO)cc(C)c1/C=C/S(=O)(=O)N1CCC2(CC1)N=C(c1ccc3c(c1)OC(F)(F)O3)NC2=O` [Compound 1165, 2-(2,2-difluoro-benzo[1,3]dioxol-5-yl)-8-{(E)-2-[4-((R)-2,3-dihydroxy-propoxy)-2,6-dimethyl-phenyl]-ethenesulfonyl}-1,3,8-triaza-spiro[4.5]dec-1-en-4-one], 4.3%.
As for `Cc1cc(C(=O)N2CCC(O)(CF)CC2)cc(C)c1CCS(=O)(=O)N1CCC2(CC1)N=C(c1ccc(F)c(C(F)(F)F)c1)NC2=O` [Compound 802, 8-{2-[4-(4-fluoromethyl-4-hydroxy-piperidine-1-carbonyl)-2,6-dimethyl-phenyl]-ethanesulfonyl}-2-(4-fluoro-3-trifluoromethyl-phenyl)-1,3,8-triaza-spiro[4.5]dec-1-en-4-one], the figure is 100%.
Turning to `Cc1cc(C(=O)N2CCC(C)(O)CC2)cc(C)c1/C=C/S(=O)(=O)N1CCC2(CC1)N=C(c1ccc(F)c(OCCCC(F)(F)C(F)(F)F)c1)NC2=O` [Compound 1092, 2-[4-Fluoro-3-(4,4,5,5,5-pentafluoro-pentyloxy)-phenyl]-8-{(E)-2-[4-(4-hydroxy-4-methyl-piperidine-1-carbonyl)-2,6-dimethyl-phenyl]-ethenesulfonyl}-1,3,8-triaza-spiro[4.5]dec-1-en-4-one], the “cAMP production activity (%)” value is given as 89%.
`Cc1cc(N(C)C(N)=O)cc(C)c1/C=C/S(=O)(=O)N1CCC2(CC1)N=C(C1CCC(C(F)(F)F)CC1)NC2=O` (stereo not shown) [Compound 471, 1-(3,5-Dimethyl-4-{(E)-2-[4-oxo-2-(4-trifluoromethyl-cyclohexyl)-1,3,8-triaza-spiro[4.5]dec-1-ene-8-sulfonyl]-vinyl}-phenyl)-1-methyl-urea]: the “cAMP production activity (%)” value is on record as 111%.
To `O=C(Cc1ccccn1)N1CCCC(C2=NC3(CCN(S(=O)(=O)CCc4cccc5ccccc45)CC3)C(=O)N2)C1` (stereo not shown) [Compound 435, 8-(2-naphthalen-1-yl-ethanesulfonyl)-2-[1-(2-pyridin-2-yl-acetyl)-piperidin-3-yl]-1,3,8-triaza-spiro[4.5]dec-1-en-4-one] belongs 17%; to `COCCN(C(N)=O)c1cc(C)c(/C=C/S(=O)(=O)N2CCC3(CC2)N=C(C2CCC(CCC(F)(F)F)CC2)NC3=O)c(C)c1` (stereo not shown) [Compound 725, 1-[3,5-dimethyl-4-((E)-2-{4-oxo-2-[4-(3,3,3-trifluoro-propyl)-cyclohexyl]-1,3,8-triaza-spiro[4.5]dec-1-ene-8-sulfonyl}-vinyl)-phenyl]-1-(2-methoxy-ethyl)-urea], 58%; to `Cc1cc(N(C)C(=O)C(F)(F)F)cc(C)c1CCS(=O)(=O)N1CCC2(CC1)N=C(C1CCCC(C)C1)NC2=O` (stereo not shown) [Compound 932, N-(3,5-Dimethyl-4-{2-[2-(3-methyl-cyclohexyl)-4-oxo-1,3,8-triaza-spiro[4.5]dec-1-ene-8-sulfonyl]-ethyl}-phenyl)-2,2,2-trifluoro-N-methyl-acetamide], 66%.
For `Cc1cc2cc(C)c1CCS(=O)(=O)N1CCC3(CC1)N=C(CCCCCCCCCCC(=O)N2C)NC3=O` [Compound 1448], the “cAMP production activity (%)” value was determined as 9.4%.
Take `CCCCC1CCC(C2=NC3(CCN(S(=O)(=O)/C=C/c4c(C)cc(N(CCOCCF)C(C)=O)cc4C)CC3)C(=O)N2)CC1` (stereo not shown) [Compound 562, N-(4-{(E)-2-[2-(4-butyl-cyclohexyl)-4-oxo-1,3,8-triaza-spiro[4.5]dec-1-ene-8-sulfonyl]-vinyl}-3,5-dimethyl-phenyl)-N-[2-(2-fluoro-ethoxy)-ethyl]-acetamide]: the “cAMP production activity (%)” value came to 74%.
In the case of `CNc1cc(C)c(CCS(=O)(=O)N2CCC3(CC2)N=C(C2CCC(=C(C)C)CC2)NC3=O)c(C)c1` (stereo not shown) [Compound 1037, 8-[2-(2,6-Dimethyl-4-methylamino-phenyl)-ethanesulfonyl]-2-(4-isopropylidene-cyclohexyl)-1,3,8-triaza-spiro[4.5]dec-1-en-4-one], the “cAMP production activity (%)” value was 87%.
Regarding `Cc1cc(N(C(N)=O)C(C)C)cc(C)c1/C=C/S(=O)(=O)N1CCC2(CC1)N=C(C1CCC(C)CC1)NC2=O` (stereo not shown) [Compound 726, 1-(3,5-Dimethyl-4-{(E)-2-[2-(4-methyl-cyclohexyl)-4-oxo-1,3,8-triaza-spiro[4.5]dec-1-ene-8-sulfonyl]-vinyl}-phenyl)-1-isopropyl-urea], the “cAMP production activity (%)” value is given as 75%.

The values are drawn from patent US9169254B2, “Spiroimidazolone derivative” (Chugai Seiyaku Kabushiki Kaisha, priority 2009, dated 2015).
